Measurements as given in patent US9169254B2, “Spiroimidazolone derivative” (Chugai Seiyaku Kabushiki Kaisha, priority 2009, dated 2015).

Biological target: T1, human PTH1 receptor (Homo sapiens, UniProt Q03431)
T1 sequence (Q03431 27-593): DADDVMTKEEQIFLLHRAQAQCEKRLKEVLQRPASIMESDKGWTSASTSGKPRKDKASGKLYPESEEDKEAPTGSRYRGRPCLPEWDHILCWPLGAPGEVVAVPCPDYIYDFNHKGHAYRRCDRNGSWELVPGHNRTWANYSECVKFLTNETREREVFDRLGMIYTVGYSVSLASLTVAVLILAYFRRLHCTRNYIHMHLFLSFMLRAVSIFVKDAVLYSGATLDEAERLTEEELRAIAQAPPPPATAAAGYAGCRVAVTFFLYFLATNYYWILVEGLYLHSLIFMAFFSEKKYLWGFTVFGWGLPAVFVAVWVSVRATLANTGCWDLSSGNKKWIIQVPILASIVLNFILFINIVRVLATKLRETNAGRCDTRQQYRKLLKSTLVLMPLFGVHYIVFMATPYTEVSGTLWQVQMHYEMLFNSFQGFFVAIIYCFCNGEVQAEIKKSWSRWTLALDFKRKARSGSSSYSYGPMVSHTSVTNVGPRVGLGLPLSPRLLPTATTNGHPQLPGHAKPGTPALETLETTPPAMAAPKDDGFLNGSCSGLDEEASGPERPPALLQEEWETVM
Assay: In vitro cAMP signal activity in HKRK-B7 cells (LLC-PK1 cells overexpressing the human PTH1 receptor)
Type: cell-based
Conditions: HKRK-B7 cells; compound at 1×10^−3 M; cAMP produced as percentage of that produced by hPTH(1-34) at 100 nM

Row | SMILES | cAMP production activity (%)
1 | Cc1cc(C(=O)N2CCC(OC[C@H](O)CO)CC2)cc(C)c1CCS(=O)(=O)N1CCC2(CC1)N=C(CCCCCCCCC(F)(F)F)NC2=O [Compound 1184, 8-(2-{4-[4-((R)-2,3-dihydroxy-propoxy)-piperidine-1-carbonyl]-2,6-dimethyl-phenyl}-ethanesulfonyl)-2-(9,9,9-trifluoro-nonyl)-1,3,8-triaza-spiro[4.5]dec-1-en-4-one] | 108%
2 | Cc1cc(N2C(=O)C(C)C[C@@H]2CO)cc(C)c1/C=C/S(=O)(=O)N1CCC2(CC1)N=C(c1cccc(OC(F)(F)F)c1)NC2=O (stereo partly drawn) [Compound 713, 8-{(E)-2-[4-((R)-5-hydroxymethyl-3-methyl-2-oxo-pyrrolidin-1-yl)-2,6-dimethyl-phenyl]-ethenesulfonyl}-2-(3-trifluoromethoxy-phenyl)-1,3,8-triaza-spiro[4.5]dec-1-en-4-one] | 55%
3 | Cc1cc(C(=O)N(C)C)ccc1CCS(=O)(=O)N1CCC2(CC1)N=C(c1nccn1C)NC2=O [Compound 122, 3,N,N-trimethyl-4-{2-[2-(1-methyl-1H-imidazol-2-yl)-4-oxo-1,3,8-triaza-spiro[4.5]dec-1-ene-8-sulfonyl]-ethyl}-benzamide] | 3.0%
4 | COC(=O)c1sccc1S(=O)(=O)N1CCC2(CC1)N=C(C1CCCCC1)NC2=O [Compound 62, 3-(2-cyclohexyl-4-oxo-1,3,8-triaza-spiro[4.5]dec-1-ene-8-sulfonyl)-thiophene-2-carboxylic acid methyl ester] | 56%
5 | CC(=O)Nc1ccc(CCS(=O)(=O)N2CCC3(CC2)N=C(C2CCC(C(F)F)CC2)NC3=O)c(C)c1 (stereo not shown) [Compound 1075, N-(4-{2-[2-(4-difluoromethyl-cyclohexyl)-4-oxo-1,3,8-triaza-spiro[4.5]dec-1-ene-8-sulfonyl]-ethyl}-3-methyl-phenyl)-acetamide] | 69%
6 | CCCC[C@H]1CC[C@H](C2=NC3(CCN(S(=O)(=O)/C=C/c4c(C)cc(N(CC5(C)COC5)C(C)=O)cc4C)CC3)C(=O)N2)CC1 [Compound 632, N-(4-{(E)-2-[2-(4-butyl-cyclohexyl)-4-oxo-1,3,8-triaza-spiro[4.5]dec-1-ene-8-sulfonyl]-vinyl}-3,5-dimethyl-phenyl)-N-(3-methyl-oxetan-3-ylmethyl)-acetamide] | 51%
7 | Cc1cc(N(C)C(N)=O)cc(C)c1CC[S@TB3](=O)(=O)N1CCC2(CC1)N=C(c1cccc(CCC(C)C)c1)NC2=O [Compound 1144, 1-[3,5-dimethyl-4-(2-{2-[3-(3-methyl-butyl)-phenyl]-4-oxo-1,3,8-triaza-spiro[4.5]dec-1-ene-8-sulfonyl}-ethyl)-phenyl]-1-methyl-urea] | 124%
8 | Cc1cc(C(=O)N2CCC(C)(O)CC2)cc(C)c1/C=C/[S@TB4](=O)(=O)N1CCC2(CC1)N=C(c1ccc(C(F)(F)F)c(C(F)(F)F)c1)NC2=O [Compound 1095, 2-(3,4-bis-trifluoromethyl-phenyl)-8-{(E)-2-[4-(4-hydroxy-4-methyl-piperidine-1-carbonyl)-2,6-dimethyl-phenyl]-ethenesulfonyl}-1,3,8-triaza-spiro[4.5]dec-1-en-4-one] | 105%
9 | Cc1cc(C(=O)N2CCN(C)CC2)ccc1CCS(=O)(=O)N1CCC2(CC1)N=C(c1cccc(C(F)(F)F)c1)NC2=O [Compound 289, 8-{2-[2-methyl-4-(4-methyl-piperazine-1-carbonyl)-phenyl]-ethanesulfonyl}-2-(3-trifluoromethyl-phenyl)-1,3,8-triaza-spiro[4.5]dec-1-en-4-one] | 99%
10 | Cc1cc2ccc1CCS(=O)(=O)N1CCC3(CC1)N=C(NC3=O)c1ccc(C(F)(F)F)c(c1)OCCCCCOCCN(C)C2=O [Compound 1432] | 18%
11 | Cc1cc(C(=O)N(C)CCCN(C)C)cc(C)c1/C=C/S(=O)(=O)N1CCC2(CC1)N=C(c1cccc(C(F)(F)F)c1)NC2=O [Compound 391, N-(3-dimethylamino-propyl)-3,5,N-trimethyl-4-{(E)-2-[4-oxo-2-(3-trifluoromethyl-phenyl)-1,3,8-triaza-spiro[4.5]dec-1-ene-8-sulfonyl]-vinyl}-benzamide] | 26%
12 | Cc1cc(N(C)C(N)=O)cc(C)c1/C=C/S(=O)(=O)N1CCC2(CC1)N=C(CCCCCCCCCO)NC2=O [Compound 1309, 1-(4-{(E)-2-[2-(9-hydroxy-nonyl)-4-oxo-1,3,8-triaza-spiro[4.5]dec-1-ene-8-sulfonyl]-vinyl}-3,5-dimethyl-phenyl)-1-methyl-urea] | 109%
13 | Cc1cc(N(C)C(N)=O)cc(C)c1CCS(=O)(=O)N1CCC2(CC1)N=C(C1CCC(CC=C(F)F)CC1)NC2=O (stereo not shown) [Compound 940, 1-[4-(2-{2-[4-(3,3-difluoro-allyl)-cyclohexyl]-4-oxo-1,3,8-triaza-spiro[4.5]dec-1-ene-8-sulfonyl}-ethyl)-3,5-dimethyl-phenyl]-1-methyl-urea] | 86%
14 | Cc1cc(N(C)C(N)=O)cc(C)c1CCS(=O)(=O)N1CCC2(CC1)N=C(c1cccc(OC(F)(F)F)c1)NC2=O [Compound 935, 1-(3,5-dimethyl-4-{2-[4-oxo-2-(3-trifluoromethoxy-phenyl)-1,3,8-triaza-spiro[4.5]dec-1-ene-8-sulfonyl]-ethyl}-phenyl)-1-methyl-urea] | 112%
15 | Cc1cc(CNC(N)=O)cc(C)c1CCS(=O)(=O)N1CCC2(CC1)N=C(C1CCC(CCC(F)(F)F)CC1)NC2=O (stereo not shown) [Compound 1313, [3,5-Dimethyl-4-(2-{4-oxo-2-[4-(3,3,3-trifluoro-propyl)-cyclohexyl]-1,3,8-triaza-spiro[4.5]dec-1-ene-8-sulfonyl}-ethyl)-benzyl]-urea] | 87%
16 | CCC1CCC(C2=NC3(CCN(S(=O)(=O)CCc4ccc(C(=O)N5CCN(CCF)CC5)cc4C)CC3)C(=O)N2)CC1 (stereo not shown) [Compound 975, 2-(4-Ethyl-cyclohexyl)-8-(2-{4-[4-(2-fluoro-ethyl)-piperazine-1-carbonyl]-2-methyl-phenyl}-ethanesulfonyl)-1,3,8-triaza-spiro[4.5]dec-1-en-4-one] | 74%
17 | O=C(NCCc1ccccc1)N1CCCC(C2=NC3(CCN(S(=O)(=O)CCc4cccc5ccccc45)CC3)C(=O)N2)C1 (stereo not shown) [Compound 455, 3-[8-(2-naphthalen-1-yl-ethanesulfonyl)-4-oxo-1,3,8-triaza-spiro[4.5]dec-1-en-2-yl]-piperidine-1-carboxylic acid phenethyl-amide] | 31%
18 | O=C1NC(C2CCC(C(F)(F)F)CC2)=NC12CCN(S(=O)(=O)CCc1cccc3c1ccn3C[C@H](O)CO)CC2 (stereo partly drawn) [Compound 322, 8-{2-[1-((S)-2,3-dihydroxy-propyl)-1H-indol-4-yl]-ethanesulfonyl}-2-(4-trifluoromethyl-cyclohexyl)-1,3,8-triaza-spiro[4.5]dec-1-en-4-one] | 75%
19 | O=C1NC(CCCCCCCCC(F)(F)F)=NC12CCN(S(=O)(=O)CCc1cccc3c1ccn3C[C@H](O)CO)CC2 [Compound 789, 8-{2-[1-((S)-2,3-dihydroxy-propyl)-1H-indol-4-yl]-ethanesulfonyl}-2-(9,9,9-trifluoro-nonyl)-1,3,8-triaza-spiro[4.5]dec-1-en-4-one] | 157%
20 | Cc1cc2cc(C)c1CCS(=O)(=O)N1CCC3(CC1)N=C(CCCC/C=C/CCCCCCCC(=O)N2C)NC3=O [Compound 1444] | 12%
21 | CC(=O)Nc1ccc(CCS(=O)(=O)N2CCC3(CC2)N=C(C2CCC(C)CC2)NC3=O)c(C)c1 (stereo not shown) [Compound 148, N-(3-methyl-4-{2-[2-(4-methyl-cyclohexyl)-4-oxo-1,3,8-triaza-spiro[4.5]dec-1-ene-8-sulfonyl]-ethyl}-phenyl)-acetamide] | 79%
22 | CCCC1=NC2(CCN(S(=O)(=O)c3cccc(Cl)c3)CC2)C(=O)N1 [Compound 3, 8-(3-chloro-benzenesulfonyl)-2-propyl-1,3,8-triaza-spiro[4.5]dec-1-en-4-one] | 20%
23 | Cc1cc(N(C)C(N)=O)cc(C)c1/C=C/S(=O)(=O)N1CCC2(CC1)N=C(C1CCC(CCC(F)(F)F)CC1)NC2=O (stereo not shown) [Compound 723, 1-[3,5-Dimethyl-4-((E)-2-{4-oxo-2-[4-(3,3,3-trifluoro-propyl)-cyclohexyl]-1,3,8-triaza-spiro[4.5]dec-1-ene-8-sulfonyl}-vinyl)-phenyl]-1-methyl-urea] | 95%
24 | CCCCCCCCCC1=NC2(CCN(S(=O)(=O)CCc3c(C)cc(C(=O)N4CCCCC4)cc3C)CC2)C(=O)N1 [Compound 983, 8-{2-[2,6-dimethyl-4-(piperidine-1-carbonyl)-phenyl]-ethanesulfonyl}-2-nonyl-1,3,8-triaza-spiro[4.5]dec-1-en-4-one] | 91%
25 | CNc1cc(C)c(CCS(=O)(=O)N2CCC3(CC2)N=C(CCCCCCCC(F)(F)C(F)(F)F)NC3=O)c(C)c1 [Compound 1035, 8-[2-(2,6-Dimethyl-4-methylamino-phenyl)-ethanesulfonyl]-2-(8,8,9,9,9-pentafluoro-nonyl)-1,3,8-triaza-spiro[4.5]dec-1-en-4-one] | 77%
